Entries after “also recorded” stand apart in the source; their conditions may differ.
Test system: Male WistarF/Han (WF) rats
Test: Response to novelty (Open field test), i.c.v. P32/98
Format: in vivo, rat
Method: Animals. Male WistarF/Han (WF) rats (Central Animal Laboratory, Hannover Medical School, Hannover, Germany, weighing 350-390 g, were housed in a sound-proof, temperature controlled (24.0±0.5° C.) room under specific pathogen free conditions with a 12/12 h dark/light cycle (lights on at 07.00 with illumination level of 80 Lux). Food (Altromin lab chow pellets) and tap water were available ad libitum. Under ketamine/xylasine (100/5 mg/kg, i.p.) anesthesia, the rats were fixed in a Kopf stereotaxic frame and implanted with cannulae (Plastic One, Inc., Roanoke, Va., USA) above the lateral ventricle. All research and animal care procedures were approved by the Lower Saxony district government (Hannover, Germany) and followed principles described in the European Community's Council Directive of 24 Nov. 1986 (86/609/EEC).
Surgery and i.c.v. application. For surgery, rats were anesthetized and prepared with i.c.v. cannulaes (coordinates: A: −0.7 mm caudal, L: 1.4 mm lateral to bregma; and V: 3.2 mm ventral to the skull surface; tooth bar +3.0 above ear bars) using standard stereotaxic procedures as described in detail elsewhere (von Hörsten et al., 1998a,b,c). […]
Response to novelty (Open field test). […] Spontaneous activity during a single continuous test session of 15 min was recorded using a video path analyzer system (E61-21 Video Path Analyser system, Coulbourn instruments, PA, U.S.A.). […] Furthermore, the total incidence of fecal boli was counted after each session and the incidence and duration (sec) of grooming behavior was simultaneously recorded from a video monitor by a person blind to the treatment of the animals (von Hörsten et al., 1998c).
Statistical analysis. For statistical analysis, behavioral raw data from every test minute were analyzed by two-way analyses of variance (ANOVA) for repeated measures (factors: treatment and time as a repeated measurement). Data obtained as totals from a session were analyzed by one-way (factor: treatment) ANOVA. […]

## CC[C@H](C)[C@H](N)C(=O)N1CCSC1 [P32/98]
i.c.v. 0.05, 5, 500 nmol, 60 min before test, four consecutive minutes, vs aCSF
  activity in the open field (distance traveled): no effect on activity; also recorded: no significant effect
i.c.v. 0.05, 5, 500 nmol, 60 min before test, sum of four consecutive minutes, vs aCSF
  time spent close to the wall in the open field: dose-dependent reduction; also recorded: significant effect
i.c.v., open field
  dosage already effective on time spent close to the wall: 50 pmol
